Results: patent publication US6413980B1, “Nitrogen containing heterobicycles as factor Xa inhibitors” (Bristol-Myers Squibb Pharma Company, priority 1998, dated 2002)
Structures can show the parent of a compound that is named as a salt.

melting point: 79.2 °C
SMILES: Cc1nn(-c2cccc(CN)c2)c2c1CCN(c1ccc(-c3ccccc3CN3CC[C@H](O)C3)cc1)C2 (as salt: trifluoroacetic acid salt) [Example 100, 1-[3-Aminomethylphenyl]-3-methyl-6-[(2′-N-((3-(S)-hydroxy)pyrrolidinyl)methyl-[1,1′]-biphen-4-yl)]-1,4,5,6-tetrahydro-7H-pyrazolo-[3,4-c]-pyridin-7-one bis-trifluoroacetic acid salt]
